Source: ChEMBL document CHEMBL1201862, “PubChem BioAssay data set” (2004)
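How tested: cells in 96-well plates exposed to compound for 48 hours at five concentrations. GI50: concentration for 50% inhibition of growth.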 Calls of active or inactive are those of the source. No stated cut-off is given here; in the data, active = GI50 up to about 1.1 µM and inactive = higher.

Legend:
Assay in all cases: inhibition of tumour cell growth, NCI panel, 48 h
RPMI-8226 = tested on: RPMI-8226
KM12 = tested on: KM12
OVCAR-4 = tested on: OVCAR-4
OVCAR-3 = tested on: OVCAR-3
UO-31 = tested on: UO-31
UACC-62 = tested on: UACC-62
SF-539 = tested on: SF-539
SN12C = tested on: SN12C
SK-MEL-28 = tested on: SK-MEL-28
NCI-H226 = tested on: NCI-H226
MCF7 = tested on: MCF7
M14 = tested on: M14
SF-295 = tested on: SF-295
HCT-116 = tested on: HCT-116
A549 = tested on: A549
IGROV-1 = tested on: IGROV-1
SNB-75 = tested on: SNB-75
COLO 205 = tested on: COLO 205
U-251 = tested on: U-251
Malme-3M = tested on: Malme-3M

| Structure (SMILES) | GI50 (RPMI-8226) | GI50 (KM12) | GI50 (OVCAR-4) | GI50 (OVCAR-3) | GI50 (UO-31) | GI50 (UACC-62) | GI50 (SF-539) | GI50 (SN12C) | GI50 (SK-MEL-28) | GI50 (NCI-H226) | GI50 (MCF7) | GI50 (M14) | GI50 (SF-295) | GI50 (HCT-116) | GI50 (A549) | GI50 (IGROV-1) | GI50 (SNB-75) | GI50 (COLO 205) | GI50 (U-251) | GI50 (Malme-3M) |
| --- | --- | --- | --- | --- | --- | --- | --- | --- | --- | --- | --- | --- | --- | --- | --- | --- | --- | --- | --- | --- |
| Cn1cnc([N+](=O)[O-])c1Sc1nncc2[nH]cnc12 | > 100 µM (inactive) | > 100 µM (inactive) | > 100 µM (inactive) | > 100 µM (inactive) | > 100 µM (inactive) | > 100 µM (inactive) | > 100 µM (inactive) | > 100 µM (inactive) | > 100 µM (inactive) | > 100 µM (inactive) | > 100 µM (inactive) | > 100 µM (inactive) | > 100 µM (inactive) | > 100 µM (inactive) | > 100 µM (inactive) | > 100 µM (inactive) | > 100 µM (inactive) | > 100 µM (inactive) | > 100 µM (inactive) | 28.8 µM (inactive) |
| COc1ccc(C2NC(=O)Nc3c2c(=O)oc2c3ccc3ccccc32)cc1 (stereo not given) | 43.3 µM (inactive) | 57 µM (inactive) | 48 µM (inactive) | 92.9 µM (inactive) | 52.7 µM (inactive) | 29.6 µM (inactive) | 83 µM (inactive) | 68.7 µM (inactive) | 55.5 µM (inactive) | 23.4 µM (inactive) | 66.2 µM (inactive) | 37.6 µM (inactive) | 51.4 µM (inactive) | 75.9 µM (inactive) | 48.4 µM (inactive) | 50.4 µM (inactive) | 22.3 µM (inactive) | > 100 µM (inactive) | 36.7 µM (inactive) | 68.9 µM (inactive) |
| COc1ccc(-c2cc(-c3ccc(Nc4ccnc5cc(Cl)ccc45)cc3)[nH]c(=O)c2C#N)c2ccccc12 | 2.6 µM (inactive) | 3.47 µM (inactive) | 1.79 µM (inactive) | 2.18 µM (inactive) | 5.32 µM (inactive) | 19.5 µM (inactive) | 1.82 µM (inactive) | 11.4 µM (inactive) | 3.34 µM (inactive) | > 100 µM (inactive) | 1.92 µM (inactive) | 2.03 µM (inactive) | 17.7 µM (inactive) | 2.16 µM (inactive) | 18.1 µM (inactive) | 5.26 µM (inactive) | 3.2 µM (inactive) | 2.44 µM (inactive) | 1.87 µM (inactive) | 2.23 µM (inactive) |
| C#CCN1CCN(C(=S)N/N=C(\C)c2ccccn2)CC1 | 0.01 µM (active) | 0.161 µM (active) | 0.35 µM (active) | < 0.057 µM (active) | 0.634 µM (active) | 0.0252 µM (active) | 1.49 µM (inactive) | 0.232 µM (active) | 1.36 µM (inactive) | 1.19 µM (inactive) | 0.01 µM (active) | 0.0263 µM (active) | 0.632 µM (active) | 0.001 µM (active) | 3.12 µM (inactive) | 0.01 µM (active) | 4.86 µM (inactive) | 0.01 µM (active) | 0.0189 µM (active) | 1 µM (active) |
| Nn1c(S)nnc1CCCCCCCCc1nnc(S)n1N | > 100 µM (inactive) | > 100 µM (inactive) | > 100 µM (inactive) | > 100 µM (inactive) | > 100 µM (inactive) | > 100 µM (inactive) | > 100 µM (inactive) | > 100 µM (inactive) | > 100 µM (inactive) | > 100 µM (inactive) | > 100 µM (inactive) | > 100 µM (inactive) | > 100 µM (inactive) | > 100 µM (inactive) | > 100 µM (inactive) | > 100 µM (inactive) | > 100 µM (inactive) | > 100 µM (inactive) | > 100 µM (inactive) | > 100 µM (inactive) |
| Cn1cc(NC(=O)Nc2cc(C(=O)Nc3cc(C(=O)Nc4cc(S(=O)(=O)O)c5cc(S(=O)(=O)O)cc(S(=O)(=O)O)c5c4)n(C)c3)n(C)c2)cc1C(=O)Nc1cc(C(=O)Nc2cc(S(=O)(=O)O)c3cc(S(=O)(=O)O)cc(S(=O)(=O)O)c3c2)n(C)c1 | > 100 µM (inactive) | > 100 µM (inactive) | > 100 µM (inactive) | > 100 µM (inactive) | 78.5 µM (inactive) | > 100 µM (inactive) | > 100 µM (inactive) | > 100 µM (inactive) | > 100 µM (inactive) | > 100 µM (inactive) | > 100 µM (inactive) | > 100 µM (inactive) | > 100 µM (inactive) | > 100 µM (inactive) | > 100 µM (inactive) | 5.64 µM (inactive) | 50.1 µM (inactive) | > 100 µM (inactive) | > 100 µM (inactive) | > 100 µM (inactive) |
| Cc1cc(C)c2c(O)cc(-c3cccc(F)c3)nc2n1 | 0.139 µM (active) | 0.0351 µM (active) | 4.08 µM (inactive) | 0.025 µM (active) | 12.9 µM (inactive) | < 0.0284 µM (active) | 0.0944 µM (active) | 0.299 µM (active) | 0.115 µM (active) | 0.168 µM (active) | 0.0308 µM (active) | 0.0521 µM (active) | 0.0348 µM (active) | < 0.0186 µM (active) | 0.0847 µM (active) | 0.0766 µM (active) | 0.0692 µM (active) | 0.043 µM (active) | 0.0724 µM (active) | 0.0614 µM (active) |
